Reference: publication PMC9723630 (2022)

Tests used:
[1] = test system: D2-HP (DNA, hairpin) CGCGAAGCATTCGCG; assay: ITC; settings: K+ (20 mM potassium phosphate, 100 mM KCl; 120 mM K+); pH 7.0, 5% DMSO, 40 °C
[2] = test system: QD2-l (DNA, G4) GGTTGGCGCGAAGCATTCGCGGGTTGG; assay: ITC; settings: K+ (20 mM potassium phosphate, 100 mM KCl; 120 mM K+), pH 7.0, 5% DMSO, 40 °C, site 1 of 2
[3] = test system: QD2-l (DNA, G4) GGTTGGCGCGAAGCATTCGCGGGTTGG; assay: CD melting at 295 nm; settings: K+ (10 mM potassium phosphate), pH 7.0, 5 µM DNA, 1:1 ligand (5 µM), free Tm 50.3 °C
[4] = test system: QD3-sbl (DNA, G4) TTAGGTGGGTAGGGTGGGCTAGTCATTTTGACTAGG; assay: ITC; settings: K+ (20 mM potassium phosphate, 100 mM KCl; 120 mM K+), pH 7.0, 5% DMSO, 40 °C
[5] = test system: TBA (DNA, G4) GGTTGGTGTGGTTGG; assay: ITC; settings: K+ (20 mM potassium phosphate, 100 mM KCl; 120 mM K+); pH 7.0, 5% DMSO, 40 °C
[6] = test system: Q3-sbl (DNA, G4) TTAGGGTGGTAGGGTGGGGAAGG; assay: ITC; settings: K+ (20 mM potassium phosphate, 100 mM KCl; 120 mM K+), pH 7.0, 5% DMSO, 40 °C
[7] = test system: QD2-l-2bp (DNA, G4) GGTTGGCGGCACGGGTTGG; assay: ITC; settings: K+ (20 mM potassium phosphate, 100 mM KCl; 120 mM K+); pH 7.0, 5% DMSO, 40 °C; site 1 of 2
[8] = test system: D3-HP (DNA, hairpin) CTAGTCATTTTGACTAG; assay: ITC; settings: K+ (20 mM potassium phosphate, 100 mM KCl; 120 mM K+), pH 7.0, 5% DMSO, 40 °C
[9] = test system: Q3-sbl2 (DNA, G4) TTAGGTGGGTAGGGTGGGTGTG; assay: NMR titration; settings: K+ (10 mM potassium phosphate); pH 7.0, 30 °C, 0.75 mM DNA; stacks on 5'-tetrad
[10] = test system: QD3-sbl (DNA, G4) TTAGGTGGGTAGGGTGGGCTAGTCATTTTGACTAGG; assay: NMR titration and solution structure; settings: K+ (10 mM potassium phosphate for structure; 120 mM K+ for titration); pH 7.0, 30 °C titration; intercalation at quadruplex-duplex junction, slow exchange

## CCN(CC)CCCNC(=O)c1ccc(-c2c3cccc(C)c3[n+](C)c3c2[nH]c2c(C)cccc23)cc1
[1]
  Ka: 45000 ± 14000 M⁻¹
[2]; Table S13 prints error 1.4×10^6
  Ka: 8.3e+06 ± 120000 M⁻¹
[3]
  Tm increase: ~ 13 °C
[4]; site 1 of 2
  Ka: 1.3e+07 ± 2.9e+06 M⁻¹
[5]
  Ka: 26000 ± 8600 M⁻¹
[6]; site 1 of 2
  Ka: 3.2e+06 ± 1.4e+06 M⁻¹
[7]
  Ka: 7.1e+06 ± 77000 M⁻¹
[8]
  Ka: 16000 ± 2200 M⁻¹

## CCOCCCNC(=O)c1ccc(-c2c3cccc(C)c3[n+](C)c3c2[nH]c2c(C)cccc23)cc1
[2]
  Ka: 2.6e+06 ± 700000 M⁻¹

## CN(C)CCCNc1c2ccccc2nc2c1[nH]c1ccccc12
[3]
  Tm increase: ~ 5 °C
[4]; site 1 of 2
  Ka: 1.1e+07 ± 3.3e+06 M⁻¹
[6]; site 1 of 2
  Ka: 2.1e+06 ± 610000 M⁻¹
[8]; site 1 of 2
  Ka: 1.3e+06 ± 120000 M⁻¹

## CN(C)CCN1C(=O)c2ccc3c4c(ccc(c24)C1=O)C(=O)N(CCN(C)C)C3=O
[4]; authors: competing sites may not be separated
  Ka: 120000 ± 25000 M⁻¹
[6]
  Ka: 95000 ± 11000 M⁻¹
[8]
  Ka: 72000 ± 23000 M⁻¹

## CN(C)c1ccc(Nc2c3ccc(NC(=O)CCN4CCCC4)cc3nc3cc(NC(=O)CCN4CCCC4)ccc23)cc1
[4]; site 1 of 2, authors: competing sites may not be separated
  Ka: 1.4e+07 ± 6.1e+06 M⁻¹
[6]; site 1 of 2
  Ka: 3e+07 ± 2.3e+06 M⁻¹
[8]; site 1 of 2
  Ka: 2.9e+06 ± 690000 M⁻¹

## CN1C(=Cc2cc[n+](C)c3ccccc23)Sc2ccccc21
[4]; site 1 of 2
  Ka: 1.1e+06 ± 27000 M⁻¹
[6]
  Ka: 170000 ± 67000 M⁻¹
[8]
  Ka: 41000 ± 2700 M⁻¹

## C[n+]1cc(NC(=O)c2ccc3ccc4ccc(C(=O)Nc5cc6ccccc6[n+](C)c5)nc4c3n2)cc2ccccc21
[3]; complex 74 °C
  Tm increase: ~ 24 °C
[9]
  binding: yes
[10]
  binding: yes

## Cc1cccc2c1[nH]c1c(-c3ccc(C(=O)NCCCN(C)CCCN)cc3)c3cccc(C)c3[n+](C)c12
[2]
  Ka: 7.9e+06 ± 900000 M⁻¹
